According to patent publication US8372967B2, “Compounds and methods for modulating expression of GCCR” (Isis Pharmaceuticals, Inc., priority 2006, dated 2013):
Strand notation (5' to 3'): a small letter for the sugar, then the base; units joined by * are phosphorothioate-linked, units joined directly phosphodiester-linked; [ ] holds rarer units or linkages, { } end groups; capitals alone tell only the bases. e = 2'-O-(2-methoxyethyl) (MOE); [5mC] = 5-methylcytosine; d = 2'-deoxy (DNA)

Experiment: Organ weights: liver, WAT, spleen, kidney, GCGR study (Table 33)
Format: in vivo, mouse
Settings: 48 h
Method: Eight-week old male C57/BL6 mice (Jackson Laboratory, Bar Harbor, Me.) were administered a single dose of GCGR oligonucleotide by intraperitoneal injection at a concentration of […]. Each dose group consisted of four animals. Shown in Table 31 are the sequences, motifs and conjugates of the GCGR antisense compounds used in this study. Bolded residues indicate 2′-O-methoxyethyl (2′-MOE) moieties. All compounds comprise phosphorothioate internucleoside linkages throughout and each cytosine is replaced with 5-methylcytosine. ISIS 386626, ISIS 386627 and ISIS 386628 further comprise a C16 conjugate group attached to the 2′-O position of the sugar via a diamide linkage (2′-OCH2C(═O)N(H)(CH2)4N(H)C(═O)—(CH2)15CH3). GCGR antisense compounds target published GCGR sequences, including Genbank® Accession No. BC031885.1 (SEQ ID NO: 7).
Mice were sacrificed 48 hours following injection to determine serum transaminase levels (Table 32); liver, white adipose tissue (WAT), spleen and kidney weight (Table 33); cholesterol, triglyceride and glucose levels (Table 34); GCGR mRNA levels (Tables 35-41); and full-length and total oligonucleotide concentration in liver and kidney (Table 42). Endpoints were assessed using methods described herein and well known to those of ordinary skill in the art. Data is included from a pre-treatment bleed (Pre-Bleed) and post-treatment bleed (Post-Bleed).

148364 (antisense eT*eG*e[5mC]*eA*e[5mC]*dT*dT*dT*dG*dT*dG*dG*dT*dA*d[5mC]*e[5mC]*eA*eA*eG*eG) [compound 148364]
Organ Weights: Kidney (6.25 mg/kg single i.p.): 104 % saline control
Organ Weights: Liver (6.25 mg/kg single i.p.): 101 % saline control
Organ Weights: Spleen (6.25 mg/kg single i.p.): 113 % saline control
Organ Weights: WAT (6.25 mg/kg single i.p.): 89 % saline control
Organ Weights: Kidney (12.5 mg/kg single i.p.): 108 % saline control
Organ Weights: Liver (12.5 mg/kg single i.p.): 100 % saline control
Organ Weights: Spleen (12.5 mg/kg single i.p.): 96 % saline control
Organ Weights: WAT (12.5 mg/kg single i.p.): 84 % saline control
Organ Weights: Kidney (25 mg/kg single i.p.): 112 % saline control
Organ Weights: Liver (25 mg/kg single i.p.): 103 % saline control
Organ Weights: Spleen (25 mg/kg single i.p.): 115 % saline control
Organ Weights: WAT (25 mg/kg single i.p.): 75 % saline control
Organ Weights: Kidney (50 mg/kg single i.p.): 108 % saline control
Organ Weights: Liver (50 mg/kg single i.p.): 103 % saline control
Organ Weights: Spleen (50 mg/kg single i.p.): 123 % saline control
Organ Weights: WAT (50 mg/kg single i.p.): 80 % saline control
